The species entered for one assay is Homo sapiens. Briefly: Selectivity ratio of IC50 for human recombinant arginase 2 H331 to I354 deletion mutant expressed in Escherichia coli BL21 (DE3) to IC50 for human recombinant arginase 1 expressed in Escherichia coli BL21 (DE3).
In another assay the target is T1, Arginase-1 (Homo sapiens, UniProt P05089).
T1 sequence (P05089 whole entry): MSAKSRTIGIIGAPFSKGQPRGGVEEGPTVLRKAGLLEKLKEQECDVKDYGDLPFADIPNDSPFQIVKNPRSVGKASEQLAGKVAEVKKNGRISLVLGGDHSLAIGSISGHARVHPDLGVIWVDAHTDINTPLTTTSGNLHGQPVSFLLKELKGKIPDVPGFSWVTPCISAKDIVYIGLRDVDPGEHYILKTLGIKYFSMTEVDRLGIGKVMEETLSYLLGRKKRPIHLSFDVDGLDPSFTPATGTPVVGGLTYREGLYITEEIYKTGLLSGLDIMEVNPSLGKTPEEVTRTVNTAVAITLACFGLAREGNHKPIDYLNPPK
Briefly: Inhibition of human recombinant arginase 1 expressed in Escherichia coli BL21 (DE3) assessed as reduction in urea production using L-arginine as substrate in presence of MnSO4 incubated for 60 mins by o-phthaldialdehyde/N-(1-naphthyl)ethylene-diamine dihydrochloride reagent based colorimetric assay.

The nature of assay [1]: Inhibition of human recombinant arginase 2 H331 to I354 deletion mutant expressed in Escherichia coli BL21 (DE3) assessed as reduction in urea production using L-arginine as substrate in presence of MnSO4 incubated for 60 mins by colorimetric assay.
Assay [2] addresses T2, Arginase-1 (Homo sapiens) (UniProt P05089).
T2 sequence (whole entry): T1 sequence (P05089 whole entry)
Briefly: Potency index, ratio of ABH IC50 to test compound IC50 for human recombinant arginase 1 expressed in Escherichia coli BL21 (DE3).

Regarding `NC1(C(=O)O)CCCC1CCCB(O)O` (racemic; 8) [listing 1 of 2 here], the Ratio IC50 in the assay listed under Homo sapiens was in the range of 3 to 5.

Turning to `CC(C)CN1C[C@H](CCCB(O)O)[C@](N)(C(=O)O)C1`, the results for the half-maximal inhibitory concentration (IC50) (on Arginase-1 (read-out: IC50); in assay [1] (read-out: IC50)) were 390 nM and 1610 nM, respectively. In addition, the Ratio IC50 in the assay filed under Homo sapiens is 3 to 5.

For the molecule `N[C@@H](CN1C[C@H](CCCB(O)O)[C@](N)(C(=O)O)C1)c1ccccc1`, the figures for the half-inhibitory concentration (IC50) (at Arginase-1 (read-out: IC50); in assay [1] (read-out: IC50)) were 18 nM and 62 nM, respectively. Also, in the assay filed under Homo sapiens, the Ratio IC50 is 3 to 5.

`Cc1nn(C)c(C)c1CN1C[C@H](CCCB(O)O)[C@](N)(C(=O)O)C1`: the results for the concentration for half-maximal inhibition (IC50) (at Arginase-1 (read-out: IC50); in assay [1] (read-out: IC50)) were 340 nM and 2230 nM, respectively. For the same molecule, the Ratio IC50 in the assay listed under Homo sapiens lay in the range of 3 to 5.

In the case of `Cn1ccnc1CN1C[C@H](CCCB(O)O)[C@](N)(C(=O)O)C1`, the concentration for half-maximal inhibition (IC50) on Arginase-1 (read-out: IC50) came to 100 nM; in assay [1] (read-out: IC50), 330 nM. Besides, the Ratio IC50 in the assay filed under Homo sapiens lay in the range of 3 to 5.

Turning to `N[C@@]1(C(=O)O)CNC[C@@H]1CCCB(O)O`, the IC50 on Arginase-1 (read-out: IC50) is 110 nM; in assay [1] (read-out: IC50), 440 nM. Moreover, the Ratio IC50 in the assay listed under Homo sapiens fell in the range of 3 to 5.

On to `N[C@@]1(C(=O)O)CN(C[C@H]2COCCN2)C[C@@H]1CCCB(O)O`, for which the half-inhibitory concentration (IC50) on Arginase-1 (read-out: IC50) was found to be 19 nM; in assay [1] (read-out: IC50) it was 65 nM. The Ratio IC50 in the assay filed under Homo sapiens was in the range of 3 to 5.

As for `NC1(C(=O)O)CCCC1CCCB(O)O` (racemic; 9), the figures for the 50% inhibitory concentration (IC50) (on Arginase-1 (read-out: IC50); in assay [1] (read-out: IC50)) were 48000 nM and 79200 nM, respectively.

Take `N[C@@]1(C(=O)O)CN(Cc2cccc(F)n2)C[C@@H]1CCCB(O)O`: the values for the concentration for half-maximal inhibition (IC50) (on Arginase-1 (read-out: IC50); in assay [1] (read-out: IC50)) were 670 nM and 2160 nM, respectively. Besides, in the assay filed under Homo sapiens, the Ratio IC50 fell in the range of 3 to 5.

Regarding `N[C@@]1(C(=O)O)CCC[C@@H]1CCCB(O)O`, the concentration for half-maximal inhibition (IC50) at Arginase-1 (read-out: IC50) was found to be 210 nM; in assay [1] (read-out: IC50), 630 nM. In addition, the Ratio IC50 in the assay filed under Homo sapiens was 3 to 5.

For `Cc1[nH]ncc1CN1C[C@H](CCCB(O)O)[C@](N)(C(=O)O)C1`, the concentration for half-maximal inhibition (IC50) on Arginase-1 (read-out: IC50) turned out to be 400 nM; in assay [1] (read-out: IC50), 2180 nM. Further, the Ratio IC50 in the assay filed under Homo sapiens is 3 to 5.

Take `N[C@H](Cc1ccccc1)CN1C[C@H](CCCB(O)O)[C@](N)(C(=O)O)C1`: the IC50 at Arginase-1 (read-out: IC50) came out at 10 nM; in assay [1] (read-out: IC50) it was 27 nM. Further, the Ratio IC50 in the assay listed under Homo sapiens was in the range of 3 to 5.

Turning to `N[C@@]1(C(=O)O)CN(C[C@@H]2CCCN2)C[C@@H]1CCCB(O)O`, the concentration for half-maximal inhibition (IC50) turned out to be 11 nM at Arginase-1 (read-out: IC50) and 47 nM in assay [1] (read-out: IC50). The Ratio IC50 in the assay listed under Homo sapiens lay in the range of 3 to 5.

On to `N[C@]1(C(=O)O)CCC[C@H]1CCCB(O)O`, for which the half-inhibitory concentration (IC50) result (at Arginase-1; in assay [1]) was “Not Active” each time.

With `N[C@@]1(C(=O)O)CN(Cc2cncs2)C[C@@H]1CCCB(O)O`, the 50% inhibitory concentration (IC50) on Arginase-1 (read-out: IC50) is 360 nM; in assay [1] (read-out: IC50), 850 nM. In addition, the Ratio IC50 in the assay listed under Homo sapiens was in the range of 3 to 5.

With `C[C@@H](N)CN1C[C@H](CCCB(O)O)[C@](N)(C(=O)O)C1`, the 50% inhibitory concentration (IC50) at Arginase-1 (read-out: IC50) was 16 nM; in assay [1] (read-out: IC50), 37 nM. Also, in the assay listed under Homo sapiens, the Ratio IC50 was 3 to 5.

With `NC1(C(=O)O)CCCC1CCCB(O)O` (racemic; 8) [listing 2 of 2 here], the IC50 came out at 380 nM on Arginase-1 (read-out: IC50) and 1280 nM in assay [1] (read-out: IC50).

As to `N[C@@]1(C(=O)O)CN(C[C@H]2CCCN2)C[C@@H]1CCCB(O)O`, the results for the half-maximal inhibitory concentration (IC50) (on Arginase-1 (read-out: IC50); in assay [1] (read-out: IC50)) were 10 nM and 37 nM, respectively. Further, the Ratio IC50 in the assay listed under Homo sapiens fell in the range of 3 to 5.

Take `N=C(NO)NCC[C@H](N)C(=O)O` [NOR-NOHA]: the IC50 in assay [1] (read-out: IC50) came to 1260 nM.

As to `N[C@@]1(C(=O)O)CN(Cc2cccnc2)C[C@@H]1CCCB(O)O`, the IC50 at Arginase-1 (read-out: IC50) worked out at 470 nM; in assay [1] (read-out: IC50) it was 1370 nM. The Ratio IC50 in the assay listed under Homo sapiens was 3 to 5.

`N[C@@]1(C(=O)O)CN(Cc2ccccn2)C[C@@H]1CCCB(O)O`: the IC50 came out at 380 nM on Arginase-1 (read-out: IC50) and 1270 nM in assay [1] (read-out: IC50). In addition, in the assay filed under Homo sapiens, the Ratio IC50 was 3 to 5.

In the case of `N[C@@H](Cc1ccccc1)CN1C[C@H](CCCB(O)O)[C@](N)(C(=O)O)C1`, the results for the IC50 (at Arginase-1 (read-out: IC50); in assay [1] (read-out: IC50)) were 1.3 nM and 8.1 nM, respectively. Also, the figures for the Ratio IC50 (in the assay filed under Homo sapiens; in assay [2]) were 3 to 5 and 1190, respectively.

On to `C[C@H](N)CN1C[C@H](CCCB(O)O)[C@](N)(C(=O)O)C1`, for which the half-maximal inhibitory concentration (IC50) at Arginase-1 (read-out: IC50) turned out to be 7.7 nM; in assay [1] (read-out: IC50), 16 nM. The Ratio IC50 in the assay listed under Homo sapiens fell in the range of 2 to 5.

In the case of `N[C@@]1(C(=O)O)CN(C[C@@H]2COCCN2)C[C@@H]1CCCB(O)O`, the results for the IC50 (at Arginase-1 (read-out: IC50); in assay [1] (read-out: IC50)) were 10 nM and 27 nM, respectively. Moreover, the Ratio IC50 in the assay filed under Homo sapiens fell in the range of 3 to 5.

Take `N[C@@]1(C(=O)O)CN(Cc2ccccc2)C[C@@H]1CCCB(O)O`: the IC50 at Arginase-1 (read-out: IC50) was 300 nM; in assay [1] (read-out: IC50) it was 1540 nM. For the same molecule, in the assay listed under Homo sapiens, the Ratio IC50 fell in the range of 3 to 5.

In the case of `N[C@@]1(C(=O)O)CN(Cc2ccncc2)C[C@@H]1CCCB(O)O`, the results for the IC50 (on Arginase-1 (read-out: IC50); in assay [1] (read-out: IC50)) were 600 nM and 1860 nM, respectively. Further, the Ratio IC50 in the assay listed under Homo sapiens lay in the range of 3 to 5.

As for `N[C@@]1(C(=O)O)CN(C[C@H]2CCCCN2)C[C@@H]1CCCB(O)O`, the half-maximal inhibitory concentration (IC50) on Arginase-1 (read-out: IC50) came out at 2.6 nM; in assay [1] (read-out: IC50), 14 nM. In addition, in the assay filed under Homo sapiens, the Ratio IC50 was 3 to 5.

For the molecule `N[C@H](CN1C[C@H](CCCB(O)O)[C@](N)(C(=O)O)C1)c1ccccc1`, the concentration for half-maximal inhibition (IC50) was found to be 2.5 nM at Arginase-1 (read-out: IC50) and 9.5 nM in assay [1] (read-out: IC50). The Ratio IC50 in the assay listed under Homo sapiens is 3 to 5.

Regarding `N[C@@]1(C(=O)O)CN(C[C@@H]2CCCCN2)C[C@@H]1CCCB(O)O`, the IC50 was found to be 30 nM at Arginase-1 (read-out: IC50) and 95 nM in assay [1] (read-out: IC50). In the assay listed under Homo sapiens, the Ratio IC50 fell in the range of 3 to 5.

Take `N[C@@H](CCCCB(O)O)C(=O)O`: the values for the 50% inhibitory concentration (IC50) (on Arginase-1 (read-out: IC50); in assay [1] (read-out: IC50)) were 1550 nM and 2550 nM, respectively. Moreover, the Ratio IC50 in the assay listed under Homo sapiens fell in the range of 3 to 5.
